Data from publication PMC8111429 (2021).

Legend:
[1] = system: F21T (DNA, G4) GGGTTAGGGTTAGGGTTAGGG; assay: FRET melting; conditions: K+ 10 mM, Na+ 10 mM, Li+ 90 mM; KCl–LiCl–cacodylate, pH 7.0; LDR 5; DNA 0.2 mM [sic] (0.2 µM, ligand 1 µM)
[2] = system: 22AG (DNA, G4) AGGGTTAGGGTTAGGGTTAGGG; assay: photometric (absorption) titration; conditions: K+ 110 mM; K-phosphate buffer, pH 7.0, 5% v/v DMSO; ligand 20 µM; per site
[3] = system: FmycT (DNA, G4) TGAGGGTGGGTAGGGTGGGTA; assay: FRET melting; conditions: K+ 10 mM, Na+ 10 mM, Li+ 90 mM; KCl–LiCl–cacodylate, pH 7.0; LDR 5; DNA 0.2 mM [sic] (0.2 µM, ligand 1 µM)
[4] = system: Fa2T (DNA, G4) ACAGGGTGTACAGGGTGT; assay: FRET melting; conditions: K+ 10 mM, Na+ 10 mM, Li+ 90 mM; KCl–LiCl–cacodylate, pH 7.0; LDR 5; DNA 0.2 mM [sic] (0.2 µM, ligand 1 µM)
[5] = system: FkitT (DNA, G4) AGGGAGGGCGCTGGGAGGAGGG; assay: FRET melting; conditions: K+ 10 mM, Na+ 10 mM, Li+ 90 mM; KCl–LiCl–cacodylate, pH 7.0; LDR 5; DNA 0.2 mM [sic] (0.2 µM, ligand 1 µM)

Row | SMILES | ∆Tm [1] | Kb [2] | ∆Tm [3] | ∆Tm [4] | ∆Tm [5]
1 | COc1c(Oc2ccc(Br)cc2)ccc2cc3[n+](cc12)CCc1cc2c(cc1-3)OCO2 | 1.8 ± 0.5 °C | 5.2 ± 0.3 × 10^5 M^-1 | 2.1 ± 0.5 °C | – | –
2 | COc1c(Oc2ccc([N+](=O)[O-])cc2)ccc2cc3[n+](cc12)CCc1cc2c(cc1-3)OCO2 | 3.5 ± 0.5 °C | 7.9 ± 0.3 × 10^5 M^-1 | 1.8 ± 0.5 °C | – | –
3 | COc1c(Oc2ccccc2)ccc2cc3[n+](cc12)CCc1cc2c(cc1-3)OCO2 | 3.2 ± 0.5 °C | 8.7 ± 0.2 × 10^5 M^-1 | 0.4 ± 0.5 °C | – | 0.1 ± 0.5 °C

Other lines, results leading:

Row | ∆Tm [1] | Kb [2] | ∆Tm [3] | ∆Tm [4] | ∆Tm [5] | SMILES
4 | 2.6 ± 0.5 °C | 7.1 ± 0.2 × 10^5 M^-1 | – | 1.2 ± 0.5 °C | – | COc1c(Oc2ccc(Cl)cc2)ccc2cc3[n+](cc12)CCc1cc2c(cc1-3)OCO2
5 | 3.9 ± 0.5 °C | 7.2 ± 0.2 × 10^5 M^-1 | – | 0.1 ± 0.5 °C | 0.6 ± 0.5 °C | COc1ccc(Oc2ccc3cc4[n+](cc3c2OC)CCc2cc3c(cc2-4)OCO3)cc1
